From patent US12528784B2, “Alkynyl-(heteroaryl)-carboxamide HCN1 inhibitors” (Hoffmann-La Roche Inc., priority 2019, dated 2026)

How the values were obtained:
[1] = molecular target: T1, HCN2 (Homo sapiens, UniProt Q9UL51); assay: HCN2 automated patch clamp current inhibition assay (Ionworks Barracuda); format: cell-based; details: HEK-293 cells stably expressing HCN2; current inhibition during a hyperpolarizing pulse of -100 mV
T1 construct: expressed in transfected cells
T1 sequence (Q9UL51 1-889): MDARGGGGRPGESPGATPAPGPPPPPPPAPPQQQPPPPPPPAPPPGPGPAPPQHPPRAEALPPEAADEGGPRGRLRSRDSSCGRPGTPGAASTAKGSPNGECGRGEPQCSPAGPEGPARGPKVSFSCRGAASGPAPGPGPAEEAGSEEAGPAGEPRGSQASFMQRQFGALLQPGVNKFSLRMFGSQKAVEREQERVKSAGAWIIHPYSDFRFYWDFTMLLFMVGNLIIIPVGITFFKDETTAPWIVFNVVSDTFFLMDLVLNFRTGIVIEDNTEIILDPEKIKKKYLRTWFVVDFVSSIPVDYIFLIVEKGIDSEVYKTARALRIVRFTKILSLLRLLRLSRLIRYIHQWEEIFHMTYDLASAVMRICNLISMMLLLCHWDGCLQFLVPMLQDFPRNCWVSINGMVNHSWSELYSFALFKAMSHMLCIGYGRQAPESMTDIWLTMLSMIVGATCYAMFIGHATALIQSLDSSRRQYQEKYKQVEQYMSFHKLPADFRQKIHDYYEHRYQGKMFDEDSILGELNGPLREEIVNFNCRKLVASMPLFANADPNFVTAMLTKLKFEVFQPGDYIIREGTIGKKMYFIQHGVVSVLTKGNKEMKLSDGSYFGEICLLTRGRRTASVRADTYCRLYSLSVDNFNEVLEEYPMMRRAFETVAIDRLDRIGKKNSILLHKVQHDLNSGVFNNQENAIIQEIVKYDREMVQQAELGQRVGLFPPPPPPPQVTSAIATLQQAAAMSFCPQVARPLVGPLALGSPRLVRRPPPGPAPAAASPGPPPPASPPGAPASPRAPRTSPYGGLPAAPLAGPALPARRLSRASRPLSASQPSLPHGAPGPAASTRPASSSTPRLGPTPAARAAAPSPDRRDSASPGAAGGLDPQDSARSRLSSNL
Protocol: (§1) In vitro, high-throughput cellular electrophysiology was employed to detect voltage- and use-dependence of compounds in single concentration screening and IC50 determination for library and medicinal chemistry profiling compounds in 384 well plates.
(§2) Cell cultures were maintained in DMEM/F12 cell growth media containing FBS and appropriate antibiotics at 37° C., 5% CO2 for a maximum of 20 passages. At a time point of 40-72 hours prior to assay, the expression of HCN protein in the cells is induced by addition of tetracyclin. Cells may be incubated at 27° C. for 2-24 hours of induction. […] Cells were harvested at 80% confluency and resuspended in extracellular buffer and added to wells. A freshly prepared Escin solution was added to intracellular buffer and applied to establish whole cell recording via perforated patch clampling by APC.
(§3) Currents through activated channels were measured directly by APC by employing hyperpolarizing voltage steps. The activation window was increased and stabilized by the addition of cell permeable Br-cAMP. Baselines were established for both use- and voltage-dependence protocols using a −30 mV holding potential and multiple test pulses at −100 mV or by 20 mV steps from −120 to 0 mV, respectively. Test compounds were added after baseline recordings followed by a 10 min incubation, voltage-dependency protocol recording, and use-dependency recording. Data was corrected for baseline and rundown (well based) and normalized for % inhibition (plate based). Five previously reported HCN inhibitors of varying potencies and selectivities and zatebradine were used for run to run and plate to plate quality controls. […] Percent inhibition was analysed at −80, −100, −120 mV of the voltage-dependency protocol and at pulse 0 and 50 of the use-dependency protocols. Selectivity was assessed against HCN2, HCN3, and HCN4 overexpressing cell lines using similar methods. As HCN4 has a slower activation than the other HCN channels, activation was extended to achieve steady state activation.

[2] = molecular target: T2, HCN4 (Homo sapiens, UniProt Q9Y3Q4); assay: HCN4 automated patch clamp current inhibition assay (Ionworks Barracuda); format: cell-based; details: HEK-293 cells stably expressing HCN4; current inhibition during a hyperpolarizing pulse of -100 mV
T2 construct: expressed in transfected cells
T2 sequence (Q9Y3Q4 1-1203): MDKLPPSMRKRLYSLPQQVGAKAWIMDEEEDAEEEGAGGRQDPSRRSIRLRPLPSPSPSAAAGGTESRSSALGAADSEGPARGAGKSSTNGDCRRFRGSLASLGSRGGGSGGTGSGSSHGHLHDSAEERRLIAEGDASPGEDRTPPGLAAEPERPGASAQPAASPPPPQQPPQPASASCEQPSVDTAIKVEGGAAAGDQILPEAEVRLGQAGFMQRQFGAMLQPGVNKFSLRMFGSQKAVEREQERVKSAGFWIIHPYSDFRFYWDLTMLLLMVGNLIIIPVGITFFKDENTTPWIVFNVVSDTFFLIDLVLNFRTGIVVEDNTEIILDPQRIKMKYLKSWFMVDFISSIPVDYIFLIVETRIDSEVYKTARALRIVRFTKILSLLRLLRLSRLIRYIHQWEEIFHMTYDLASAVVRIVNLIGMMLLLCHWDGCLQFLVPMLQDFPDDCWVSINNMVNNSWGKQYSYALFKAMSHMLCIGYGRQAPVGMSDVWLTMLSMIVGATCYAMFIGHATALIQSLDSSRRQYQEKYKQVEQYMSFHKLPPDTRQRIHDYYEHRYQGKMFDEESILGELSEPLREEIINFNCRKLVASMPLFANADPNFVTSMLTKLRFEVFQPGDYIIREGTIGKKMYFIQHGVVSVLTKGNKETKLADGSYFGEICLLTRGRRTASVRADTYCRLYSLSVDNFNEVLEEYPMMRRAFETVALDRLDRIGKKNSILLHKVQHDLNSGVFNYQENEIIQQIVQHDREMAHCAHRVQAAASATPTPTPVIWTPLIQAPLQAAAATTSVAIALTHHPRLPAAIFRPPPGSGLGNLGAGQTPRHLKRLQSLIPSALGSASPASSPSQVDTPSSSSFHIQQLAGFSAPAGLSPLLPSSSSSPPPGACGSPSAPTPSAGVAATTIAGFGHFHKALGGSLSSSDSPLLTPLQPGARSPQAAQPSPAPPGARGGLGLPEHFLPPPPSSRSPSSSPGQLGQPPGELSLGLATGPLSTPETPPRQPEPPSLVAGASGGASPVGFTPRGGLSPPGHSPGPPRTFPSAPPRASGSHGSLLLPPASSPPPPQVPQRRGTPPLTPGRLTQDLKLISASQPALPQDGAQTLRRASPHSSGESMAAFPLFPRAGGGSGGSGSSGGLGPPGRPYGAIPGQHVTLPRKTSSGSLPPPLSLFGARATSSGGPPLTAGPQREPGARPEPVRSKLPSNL
Protocol: as §1, §2, §3

| SMILES | IC50 [1] [µM] | IC50 [2] [µM] |
| --- | --- | --- |
| Cc1ccc(-n2c(C(N)=O)nc(C#Cc3ccnc(Cl)c3C)c2C)cn1 [Example 1, 4-((2-Chloro-3-methylpyridin-4-yl)ethynyl)-5-methyl-1-(6-methylpyridin-3-yl)-1H-imidazole-2-carboxamide] | > 40 | > 40 |
| Cc1ccc(-n2c(C(N)=O)nc(C#Cc3ccnc(Cl)c3F)c2C)cn1 [Example 2, 4-((2-Chloro-3-fluoropyridin-4-yl)ethynyl)-5-methyl-1-(6-methylpyridin-3-yl)-1H-imidazole-2-carboxamide] | > 40 | > 40 |
| Cc1ccc(-n2c(C(N)=O)nc(C#Cc3csc(Cl)c3)c2C)cn1 [Example 3, 4-[2-(5-Chlorothiophen-3-yl)ethynyl]-5-methyl-1-(6-methylpyridin-3-yl)imidazole-2-carboxamide] | > 40 | > 40 |
| Cc1ccc(-n2c(C(N)=O)nc(C#Cc3cccc(Cl)c3)c2C)cn1 [Example 4, 4-[2-(3-Chlorophenyl)ethynyl]-5-methyl-1-(6-methyl-3-pyridyl)imidazole-2-carboxamide] | 30.6 | > 40 |
| Cc1ccc(-n2c(C(N)=O)nc(C#Cc3cccc(C#N)c3)c2C)cn1 [Example 5, 4-((3-Cyanophenyl)ethynyl)-5-methyl-1-(6-methylpyridin-3-yl)-1H-imidazole-2-carboxamide] | > 40 | > 40 |
| Cc1ccc(-n2c(C(N)=O)nc(C#Cc3ccnc(Cl)c3)c2C)cn1 [Example 6, 4-(2-Chloro-pyridin-4-ylethynyl)-5-methyl-1-(6-methyl-pyridin-3-yl)-1H-imidazole-2-carboxylic Acid Amide] | > 40 | > 40 |
| COc1cccc(C#Cc2nc(C(N)=O)n(-c3ccc(C)nc3)c2C)c1 [Example 8, 4-((3-Methoxyphenyl)ethynyl)-5-methyl-1-(6-methylpyridin-3-yl)-1H-imidazole-2-carboxamide] | > 40 | > 40 |
| Cc1cccc(C#Cc2nc(C(N)=O)n(-c3ccc(C)nc3)c2C)c1 [Example 10, 5-Methyl-1-(6-methylpyridin-3-yl)-4-(m-tolylethynyl)-1H-imidazole-2-carboxamide] | > 40 | > 40 |
| Cc1cnc(-n2c(C(N)=O)nc(C#Cc3ccnc(Cl)c3C)c2C)cn1 [Example 23, 4-[2-(2-Chloro-3-methyl-4-pyridyl)ethynyl]-5-methyl-1-(5-methylpyrazin-2-yl)imidazole-2-carboxamide] | > 40 | > 40 |
| Cc1c(C#Cc2nc(C(N)=O)n(-c3ccc(Cl)nc3)c2C)ccnc1Cl [Example 26, 4-[2-(2-Chloro-3-methyl-4-pyridyl)ethynyl]-1-(6-chloro-3-pyridyl)-5-methyl-imidazole-2-carboxamide] | > 40 | > 40 |
| COc1ccc(-n2c(C(N)=O)nc(C#Cc3ccnc(Cl)c3C)c2C)cn1 [Example 27, 4-[2-(2-Chloro-3-methyl-4-pyridyl)ethynyl]-1-(6-methoxy-3-pyridyl)-5-methyl-imidazole-2-carboxamide] | > 40 | > 40 |
| Cc1ccc(-n2c(C(N)=O)nc(C#Cc3ccnc(Cl)c3C)c2C)nc1 [Example 28, 4-[2-(2-Chloro-3-methyl-4-pyridyl)ethynyl]-5-methyl-1-(5-methyl-2-pyridyl)imidazole-2-carboxamide] | > 40 | > 40 |
| Cc1ccc(-n2c(C(N)=O)cc(C#Cc3ccnc(Cl)c3)c2C)cn1 [Example 31, 4-[2-(2-Chloro-4-pyridyl)ethynyl]-5-methyl-1-(6-methyl-3-pyridyl)pyrrole-2-carboxamide] | > 40 | > 40 |
| Cc1ccc(-c2c(C(N)=O)nc(C#Cc3ccnc(Cl)c3)n2C)cn1 [Example 32, 2-[2-(2-Chloro-4-pyridyl)ethynyl]-1-methyl-5-(6-methyl-3-pyridyl)imidazole-4-carboxamide] | > 40 | > 40 |
| Cc1ccc(-n2c(C(N)=O)nc(C#Cc3ccnc(Cl)c3)c2C)cc1 [Example 38, 4-[2-(2-Chloro-4-pyridyl)ethynyl]-5-methyl-1-(p-tolyl)imidazole-2-carboxamide] | > 40 | > 40 |
| Cc1c(C#Cc2ccnc(Cl)c2)nc(C(N)=O)n1-c1ccc(Cl)cc1 [Example 39, 1-(4-Chlorophenyl)-4-((2-chloropyridin-4-yl)ethynyl)-5-methyl-1H-imidazole-2-carboxamide] | > 40 | > 40 |
| NC(=O)c1nc(C#Cc2ccnc(Cl)c2)cn1-c1ccc(F)cc1 [Example 42, 4-(2-Chloro-pyridin-4-ylethynyl)-1-(4-fluoro-phenyl)-1H-imidazole-2-carboxylic Acid Amide] | > 40 | > 40 |
